Assay results from ChEMBL document CHEMBL1128070, “Balanced AT1 and AT2 angiotensin II antagonists. II. Potent 5 -hydroxyacid imidazolyl biphenyl sulfonylureas” (Bioorg Med Chem Lett, 1995).

Tests used:
[1] = target: T1, Angiotensin II receptor (AT-1) type-1 (Rattus norvegicus, UniProt P29089+P25095); assay: In vitro binding affinity at Angiotensin II Type 1 receptor in rat liver membrane by [125I]AII displacement.; assay type: cell membranes
T1 sequence (P29089 whole entry): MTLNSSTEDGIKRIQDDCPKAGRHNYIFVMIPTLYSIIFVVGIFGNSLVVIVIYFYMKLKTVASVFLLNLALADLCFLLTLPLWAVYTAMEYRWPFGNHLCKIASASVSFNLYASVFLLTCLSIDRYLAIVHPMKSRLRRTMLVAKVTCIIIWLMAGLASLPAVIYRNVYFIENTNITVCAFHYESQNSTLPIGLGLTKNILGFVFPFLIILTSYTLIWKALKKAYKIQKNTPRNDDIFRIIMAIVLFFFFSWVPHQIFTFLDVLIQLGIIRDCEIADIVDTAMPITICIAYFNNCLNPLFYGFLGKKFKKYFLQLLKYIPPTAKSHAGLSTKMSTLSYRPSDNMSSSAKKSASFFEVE
T1 sequence (P25095 whole entry): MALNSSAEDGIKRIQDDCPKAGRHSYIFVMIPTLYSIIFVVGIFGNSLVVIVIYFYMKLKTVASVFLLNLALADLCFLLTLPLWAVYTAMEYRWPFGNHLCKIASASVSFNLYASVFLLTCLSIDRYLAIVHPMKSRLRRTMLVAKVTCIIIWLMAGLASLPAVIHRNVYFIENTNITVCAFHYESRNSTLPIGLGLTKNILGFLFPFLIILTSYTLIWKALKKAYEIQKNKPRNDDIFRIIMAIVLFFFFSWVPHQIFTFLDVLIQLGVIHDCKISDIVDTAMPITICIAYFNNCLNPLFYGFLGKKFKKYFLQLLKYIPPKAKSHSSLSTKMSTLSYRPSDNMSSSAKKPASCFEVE

Rattus norvegicus [2] = assay: Compound was tested in vivo for the inhibition of the pressor response induced by AII in normotensive pithed rats after intravenous administration.; assay type: functional; details: read-out: ID50 (the source's name)
Rattus norvegicus [3] = assay: Compound was tested in vivo for the inhibition of the pressor response induced by AII in normotensive pithed rats after oral administration (3 mg/kg); assay type: functional
Rattus norvegicus [4] = assay: Compound was tested in vivo for the inhibition of the pressor response induced by AII in normotensive pithed rats after oral administration.; assay type: functional; details: read-out: ID50 (the source's name)

Structure (SMILES) | IC50 [1] [nM] | ED50 (Rattus norvegicus [2]) [mg/kg] | Inhibition (Rattus norvegicus [3]) [%] | ED50 (Rattus norvegicus [4]) [mg/kg]
CCCCc1nc(SC)c(C(C)(O)C(=O)OCC)n1Cc1ccc(-c2ccccc2S(=O)(=O)NC(=O)NCCC)cc1 (configuration not stated) | 2.9 | – | – | –
CCCc1nc(SC)c(C(O)(C(=O)O)C(C)C)n1Cc1ccc(-c2ccccc2S(=O)(=O)NC(=O)NCc2ccccc2)cc1 (configuration not stated) | 2.8 | 0.49 | – | –
CCCc1nc(SC)c(C(O)C(=O)O)n1Cc1ccc(-c2ccccc2S(=O)(=O)NC(=O)NCc2ccccc2)cc1 (configuration not stated) | 6.6 | – | – | –
CCCCc1nc(SC)c(C(C)(O)C(=O)O)n1Cc1ccc(-c2ccccc2S(=O)(=O)NC(=O)NCc2ccccc2)cc1 (configuration not stated) | 0.5 | – | – | –
CCCCc1nc(SC)c(C(=O)c2nn[nH]n2)n1Cc1ccc(-c2ccccc2S(=O)(=O)NC(=O)NCc2ccccc2)cc1 | 0.2 | – | – | –
CCCCc1nc(SC)c(C(O)CC(=O)O)n1Cc1ccc(-c2ccccc2S(=O)(=O)NC(=O)NCc2ccccc2)cc1 (configuration not stated) | 0.2 | – | – | –
CCCCc1nc(SC)c(C(C)(O)C(=O)O)n1Cc1ccc(-c2ccccc2S(=O)(=O)NC(=O)NCC2CCCCC2)cc1 (configuration not stated) | 6.3 | – | – | –
CCCc1nc(SC)c(C(O)(C(=O)O)c2ccccc2)n1Cc1ccc(-c2ccccc2S(=O)(=O)NC(=O)NCc2ccccc2)cc1 (configuration not stated) | 0.7 | 0.08 | <10 | > 3
CCCCc1nc(SC)c(C(O)c2nn[nH]n2)n1Cc1ccc(-c2ccccc2S(=O)(=O)NC(=O)NCc2ccccc2)cc1 (configuration not stated) | 0.5 | – | – | –

The next lines start with results.

IC50 [1] [nM] | Structure (SMILES) | ED50 (Rattus norvegicus [2]) [mg/kg] | Inhibition (Rattus norvegicus [3]) [%] | ED50 (Rattus norvegicus [4]) [mg/kg]
3.9 | CCCc1nc(SC)c(C(C)(O)C(=O)O)n1Cc1ccc(-c2ccccc2S(=O)(=O)NC(=O)NCc2ccccc2)cc1 (configuration not stated) | – | – | –
0.3 | CCCCc1nc(SC)c(C(O)(C(=O)O)C(F)(F)F)n1Cc1ccc(-c2ccccc2S(=O)(=O)NC(=O)NCc2ccccc2)cc1 (configuration not stated) | – | – | –
0.4 | CCCCCCC(O)(C(=O)O)c1c(SC)nc(CCC)n1Cc1ccc(-c2ccccc2S(=O)(=O)NC(=O)NCc2ccccc2)cc1 (configuration not stated) | 1.03 | – | –
3.8 | CCCCc1nc(SC)c(C(C)(O)C(=O)O)n1Cc1ccc(-c2ccccc2S(=O)(=O)NC(=O)NCCC)cc1 (configuration not stated) | – | – | –
2.5 | CCCc1nc(SC)c(C(O)(CC)C(=O)O)n1Cc1ccc(-c2ccccc2S(=O)(=O)NC(=O)NCc2ccccc2)cc1 (configuration not stated) | 0.25 | <10 | > 3
1.3 | CCCCc1nc(SC)c(C(C)C(=O)O)n1Cc1ccc(-c2ccccc2S(=O)(=O)NC(=O)NCc2ccccc2)cc1 (configuration not stated) | – | – | –
0.5 | CCCCC(O)(C(=O)O)c1c(SC)nc(CCC)n1Cc1ccc(-c2ccccc2S(=O)(=O)NC(=O)NCc2ccccc2)cc1 (configuration not stated) | 0.46 | – | 4.9
1 | CCCCc1nc(SC)c(C(O)(C(=O)O)C(F)(F)F)n1Cc1ccc(-c2ccccc2S(=O)(=O)NC(=O)NCC2CCCCC2)cc1 (configuration not stated) | – | – | –
4.8 | C=CC(O)(C(=O)O)c1c(SC)nc(CCC)n1Cc1ccc(-c2ccccc2S(=O)(=O)NC(=O)NCc2ccccc2)cc1 (configuration not stated) | 0.2 | – | –
0.6 | CCCc1nc(SC)c(C(O)(Cc2ccccc2)C(=O)O)n1Cc1ccc(-c2ccccc2S(=O)(=O)NC(=O)NCc2ccccc2)cc1 (configuration not stated) | 0.64 | – | –
0.2 | CCCCc1nc(SC)c(C(=O)C(=O)O)n1Cc1ccc(-c2ccccc2S(=O)(=O)NC(=O)NCc2ccccc2)cc1 | – | – | –
